Measured values: patent US6387925B1, “Polymorphs of a crystalline azo-bicyclo (2.2.2) oct-3-yl amine citrate and their pharmaceutical compositions” (Pfizer Inc., priority 1999, dated 2002)
“Also recorded” adds a separate entry of the source. Counter-ions that a name gives are not always drawn. Like-named read-outs stand apart in the source and are kept apart here.

Assay: Hygroscopicity measurements
Format: physicochemical
Conditions: for water absorbed (hygroscopicity): at 90% RH
Description: Anhydrous citrate synthesis was carried out by adding 1.1 equivalents citric acid to a stirred slurry of the free base in isopropanol (15 volumes) at room temperature. The resulting solution was stirred and monitored by differential scanning calorimetry and after all the free base had reacted (18 hours), the anhydrous citrate salt was obtained as a white crystalline solid by filtration and drying under house vacuum at 45° C. with nitrogen purge (83% yield). […] The crystalline habits frequently encountered are microcrystalline flakes. The most intense reflections, d spacings, observed by X-ray powder diffraction were 17.608, 10.953, 8.782, 7.956, 7.371, 6.802, 6.571, 5.866, 5.462, 4.907, 4.415, 4.188, 3.635 and 3.512Å.
The resulting citrate monohydrate salt, Form A, was compared to an authentic sample and characterized via PLM, X-ray powder diffraction, proton NMR, Karl Fisher, DSC and elemental analysis. […] The two crystalline habits having similar refractograms encountered were plates and needles. The needle habit was as a result of different rate of growth of the crystal faces in water whereas in isopropanol/water more even growth of crystal faces produced plates. The most intense reflections, d spacings, observed by X-ray powder diffraction were 17.730, 10.928, 9.651, 8.253, 6.707, 5.981, 5.666, 5.450, 4.833, 4.488, and 3.646Å. […] Elemental analysis validated the purity of the salt synthesized.

Row | hygroscopicity (in words) | Compound | water absorbed (hygroscopicity) [% wt./wt.] | hygroscopicity (in words) (citrate monohydrate)
1 |  | COc1ccc(C(C)C)cc1CNC1C2CCN(CC2)C1C(c1ccccc1)c1ccccc1.O.O=C(O)CC(O)(CC(=O)O)C(=O)O (stereo not shown) [Form A] | 2.44 | hygroscopically stable; also recorded: lack of hygroscopicity
2 | nonhygroscopic | COc1ccc(C(C)C)cc1CN[C@H]1C2CCN(CC2)[C@H]1C(c1ccccc1)c1ccccc1 [anhydrous citrate salt, (2-Benzhydryl-1-azo-bicyclo[2.2.2]oct-3-yl)-(5-isopropyl-2-methoxybenzyl)-amine citrate] | 1.11 | 
